Data from US20190062305A1, “PYRIDYL OR PYRAZINYL COMPOUNDS CARRYING A METHYL-BOUND ALPHA-AMINO ACID AMIDE GROUP” (ABBVIE DEUTSCHLAND GMBH & CO. KG, priority 2015, published 2019).
Where a name gives a salt, the structure may show the parent alone. Each block holds one compound with its values, some of them ahead of it.

Legend:
[1] = biological target: T1, 5-HT2C receptor (Homo sapiens, UniProt P28335); assay: Human 5-HT2C functional assay (beta-arrestin2 recruitment, U2OS_HTR2C_β-Arrestin cells); type: cell-based; settings: for EC50: beta-arrestin2 recruitment, U2OS_HTR2C_β-Arrestin cells, 1.5 h incubation, read-out: EC50 5-HT2C (potency in functional assay); for Emax / % efficacy: relative efficacy vs response to 10 μM 5-HT or maximal 5-HT effect (100%)
T1 construct: host or cells: U2OS
Procedure, shortened: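 U2OS cells expressing HTR2C with β-galactosidase complementation, switched to 1% serum medium 24 h post-plating, were treated next day with compound for 1.5 h; chemiluminescence read. Response expressed as % of 10 µM 5-HT or maximal 5-HT effect; EC50 from 4-parameter variable-slope fit.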

[2] = Metabolic stability in human liver microsomes, unbound intrinsic clearance (Cl int/fu mic); type: in vitro ADME; settings: 0.5 μM compound, NADPH; for CLint scaled at 0.5 μM: human, liver microsomes, pH 7.4, human liver microsomes 0.25 mg/mL, read-out: Cl int, mic unb. (h) [l/h/kg] (unbound intrinsic clearance, human); for Cl int, mic unb. (h) [l/h/kg] (unbound intrinsic clearance, human): human liver microsomes 0.25 mg/mL
Procedure, shortened: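 Compound (0.5 µM) was incubated with human liver microsomes (0.25 mg/mL) in pH 7.4 phosphate buffer at 37 °C with 1.0 mM NADPH, sampling from 0–30 min. Depletion was followed by LC-MS/MS, and CLint was derived from first-order t1/2 per mg protein. Microsomal unbound fraction came from 4 h equilibrium dialysis at 37 °C, giving CLint/fu mic.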

T1 sequence (P28335 33-458): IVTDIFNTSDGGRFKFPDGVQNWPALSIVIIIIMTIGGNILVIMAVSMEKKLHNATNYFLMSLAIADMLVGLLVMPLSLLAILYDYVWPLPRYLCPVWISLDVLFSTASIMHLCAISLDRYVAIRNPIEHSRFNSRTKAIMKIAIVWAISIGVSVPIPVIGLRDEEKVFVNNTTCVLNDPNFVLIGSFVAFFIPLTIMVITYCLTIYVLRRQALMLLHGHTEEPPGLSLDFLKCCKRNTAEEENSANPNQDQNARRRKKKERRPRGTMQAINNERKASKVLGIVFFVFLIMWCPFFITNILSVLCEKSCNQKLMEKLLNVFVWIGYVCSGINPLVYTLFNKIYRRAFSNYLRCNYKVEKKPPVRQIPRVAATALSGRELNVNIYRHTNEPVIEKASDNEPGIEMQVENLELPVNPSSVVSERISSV
T1 sequence (P32121 whole entry partner): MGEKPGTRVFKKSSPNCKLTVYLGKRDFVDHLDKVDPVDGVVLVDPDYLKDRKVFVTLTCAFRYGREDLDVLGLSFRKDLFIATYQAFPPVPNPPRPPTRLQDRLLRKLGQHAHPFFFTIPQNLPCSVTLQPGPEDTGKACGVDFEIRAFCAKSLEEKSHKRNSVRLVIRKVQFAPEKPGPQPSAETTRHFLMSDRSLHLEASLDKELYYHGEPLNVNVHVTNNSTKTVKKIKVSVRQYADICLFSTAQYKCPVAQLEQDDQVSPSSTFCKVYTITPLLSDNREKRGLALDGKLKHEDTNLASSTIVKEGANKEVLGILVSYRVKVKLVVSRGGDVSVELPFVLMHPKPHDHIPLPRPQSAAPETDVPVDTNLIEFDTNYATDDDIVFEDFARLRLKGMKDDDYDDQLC

SMILES: COc1nc(N2CCC(C(F)(F)F)CC2)c(F)cc1CNC(=O)[C@@H]1CCCN1 [Example 133, (2S)—N-[[5-Fluoro-2-methoxy-6-[4-(trifluoromethyl)-1-piperidyl]-3-pyridyl]methyl]pyrrolidine-2-carboxamide; 2,2,2-trifluoroacetic Acid]
- EC50 [1]: < 20 nM
- Emax [1]: > 70%
- CLint scaled at 0.5 μM [2]: 5 to 50 L/h/kg

SMILES: COc1nc(N2CCC(F)(F)CC2)c(F)cc1CNC(=O)[C@@H]1CCCN1 [Example 134, (2S)—N-[[6-(4,4-Difluoro-1-piperidyl)-5-fluoro-2-methoxy-3-pyridyl]methyl]-pyrrolidine-2-carboxamide; 2,2,2-trifluoroacetic Acid]
- EC50 [1]: < 20 nM
- Emax [1]: > 70%
- CLint scaled at 0.5 μM [2]: < 5 L/h/kg

SMILES: COc1nc(NCC2CC(F)(F)C2)c(F)cc1CNC(=O)[C@@H]1CCCN1 [Example 136, (2S)—N-[[6-[(3,3-Difluorocyclobutyl)methylamino]-5-fluoro-2-methoxy-3-pyridyl]methyl]pyrrolidine-2-carboxamide; 2,2,2-trifluoroacetic Acid]
- EC50 [1]: < 20 nM
- Emax [1]: > 70%
- CLint scaled at 0.5 μM [2]: < 5 L/h/kg

SMILES: COc1nc(N(C)CCc2ccccc2)c(F)cc1CNC(=O)[C@@H]1CCCN1 [Example 137, (2S)—N-[[5-Fluoro-2-methoxy-6-[methyl(phenethyl)amino]-3-pyridyl]methyl]-pyrrolidine-2-carboxamide Hydrochloride]
- EC50 [1]: 200 to 1000 nM
- Emax [1]: > 70%
- CLint scaled at 0.5 μM [2]: 50 to 500 L/h/kg

SMILES: COc1nc(N2CCc3ccccc32)c(F)cc1CNC(=O)[C@@H]1CCCN1 [Example 138, (2S)—N-[(5-Fluoro-6-indolin-1-yl-2-methoxy-3-pyridyl)methyl]pyrrolidine-2-carboxamide Hydrochloride]
- EC50 [1]: 200 to 1000 nM
- Emax [1]: > 70%
- CLint scaled at 0.5 μM [2]: 5 to 50 L/h/kg

SMILES: COc1nc(C2CC2C(F)(F)F)c(F)cc1CNC(=O)[C@@H]1CCCN1 (stereo partly drawn) [Example 139, (2S)—N-[[5-fluoro-2-methoxy-6-[2-(trifluoromethyl)cyclopropyl]-3-pyridyl]methyl]pyrrolidine-2-carboxamide; 2,2,2-trifluoroacetic Acid]
- EC50 [1]: 200 to 1000 nM
- Emax [1]: 30 to 50%
- CLint scaled at 0.5 μM [2]: 5 to 50 L/h/kg

- EC50 [1]: < 20 nM
- Emax [1]: > 70%
- CLint scaled at 0.5 μM [2]: 5 to 50 L/h/kg
SMILES: COc1nc(C2=CCC(C(F)(F)F)CC2)c(F)cc1CNC(=O)[C@@H]1CCCN1 (stereo partly drawn) [Example 140, (2S)—N-[[5-Fluoro-2-methoxy-6-[4-(trifluoromethyl)cyclohexen-1-yl]-3-pyridyl]methyl]pyrrolidine-2-carboxamide]

SMILES: COc1nc(N[C@H]2CC[C@@H](C(F)(F)F)CC2)c(F)cc1CNC(=O)[C@@H]1CCCN1 [Example 141, (2S)—N-[[5-Fluoro-2-methoxy-6-[[cis-4-(trifluoromethyl)cyclohexyl]amino]-3-pyridyl]methyl]pyrrolidine-2-carboxamide]
- EC50 [1]: < 20 nM
- Emax [1]: > 70%
- Cl int, mic unb. (h) [l/h/kg] (unbound intrinsic clearance, human) [2]: + (from 50 to 500 l/h/kg)

SMILES: COc1nc(N[C@H]2CC[C@@H](C(F)(F)F)CC2)c(F)cc1CNC(=O)[C@@H]1CCCN1.Cl [Example 142, (2S)—N-[[5-Fluoro-2-methoxy-6-[[cis-4-(trifluoromethyl)cyclohexyl]amino]-3-pyridyl]methyl]pyrrolidine-2-carboxamide Hydrochloride]
- EC50 [1]: < 20 nM
- % efficacy [1]: +++ (>70%)
- Cl int, mic unb. (h) [l/h/kg] (unbound intrinsic clearance, human) [2]: ++ (from 5 to <50 l/h/kg)

SMILES: COc1nc(N[C@H]2CC[C@H](C(F)(F)F)CC2)c(F)cc1CNC(=O)[C@@H]1CCCN1 [Example 143, (2S)—N-[[5-Fluoro-2-methoxy-6-[[trans-4-(trifluoromethyl)cyclohexyl]amino]-3-pyridyl]methyl]pyrrolidine-2-carboxamide]
- EC50 [1]: < 20 nM
- Emax [1]: > 70%
- Cl int, mic unb. (h) [l/h/kg] (unbound intrinsic clearance, human) [2]: + (from 50 to 500 l/h/kg)

SMILES: COc1nc(N[C@H]2CC[C@H](C(F)(F)F)CC2)c(F)cc1CNC(=O)[C@@H]1CCCN1.Cl [Example 144, (2S)—N-[[5-Fluoro-2-methoxy-6-[[trans-4-(trifluoromethyl)cyclohexyl]amino]-3-pyridyl]methyl]pyrrolidine-2-carboxamide Hydrochloride]
- EC50 [1]: 20 to 200 nM
- % efficacy [1]: +++ (>70%)
- Cl int, mic unb. (h) [l/h/kg] (unbound intrinsic clearance, human) [2]: ++ (from 5 to <50 l/h/kg)

- EC50 [1]: < 20 nM
- Emax [1]: > 70%
- CLint scaled at 0.5 μM [2]: < 5 L/h/kg
SMILES: COc1nc(Cc2ccccc2)c(F)cc1CNC(=O)[C@@H]1CCCN1 [Example 145, (2S)—N-[(6-Benzyl-5-fluoro-2-methoxy-3-pyridyl)methyl]pyrrolidine-2-carboxamide]

SMILES: COc1nc(NC2CCC2)c(F)cc1CNC(=O)[C@@H]1CCCN1 [Example 146, (2S)—N-[[6-(Cyclobutylamino)-5-fluoro-2-methoxy-3-pyridyl]methyl]pyrrolidine-2-carboxamide; 2,2,2-trifluoroacetic Acid]
- EC50 [1]: 20 to 200 nM
- Emax [1]: > 70%
- CLint scaled at 0.5 μM [2]: < 5 L/h/kg

SMILES: COc1nc(N(C)C2CC2)c(F)cc1CNC(=O)[C@@H]1CCCN1 [Example 147, (2S)—N-[[6-[N-Cyclopropyl-N-methyl-amino]-5-fluoro-2-methoxy-3-pyridyl]methyl]pyrrolidine-2-carboxamide; 2,2,2-trifluoroacetic Acid]
- EC50 [1]: 200 to 1000 nM
- Emax [1]: 50 to 70%
- CLint scaled at 0.5 μM [2]: 5 to 50 L/h/kg

SMILES: C=CCN(Cc1ccccc1)c1nc(OC)c(CNC(=O)[C@@H]2CCCN2)cc1F [Example 150, (2S)—N-[[6-[N-Allyl-N-benzyl-amino]-5-fluoro-2-methoxy-3-pyridyl]methyl]-pyrrolidine-2-carboxamide Hydrochloride]
- EC50 [1]: 20 to 200 nM
- Emax [1]: > 70%
- CLint scaled at 0.5 μM [2]: 5 to 50 L/h/kg

SMILES: COc1nc(N2CC(Oc3ccc(Cl)cc3)C2)c(F)cc1CNC(=O)[C@@H]1CCCN1 [Example 151, (2S)—N-[[6-[3-(4-Chlorophenoxy)azetidin-1-yl]-5-fluoro-2-methoxy-3-pyridyl]methyl]pyrrolidine-2-carboxamide; 2,2,2-trifluoroacetic Acid]
- EC50 [1]: 200 to 1000 nM
- Emax [1]: > 70%
- CLint scaled at 0.5 μM [2]: 50 to 500 L/h/kg

SMILES: COc1nc(NCC2(C(F)(F)F)CC2)c(F)cc1CNC(=O)[C@@H]1CCCN1 [Example 152, (2S)—N-[[5-Fluoro-2-methoxy-6-[[1-(trifluoromethyl)cyclopropyl]methylamino]-3-pyridyl]methyl]pyrrolidine-2-carboxamide; 2,2,2-trifluoroacetic Acid]
- EC50 [1]: < 20 nM
- Emax [1]: > 70%
- CLint scaled at 0.5 μM [2]: < 5 L/h/kg

SMILES: COc1nc(N2CCCC(C(F)(F)F)C2)c(F)cc1CNC(=O)[C@@H]1CCCN1 (stereo partly drawn) [Example 153, (2S)—N-[[5-Fluoro-2-methoxy-6-[3-(trifluoromethyl)-1-piperidyl]-3-pyridyl]methyl]pyrrolidine-2-carboxamide; 2,2,2-trifluoroacetic Acid]
- EC50 [1]: 20 to 200 nM
- Emax [1]: > 70%
- CLint scaled at 0.5 μM [2]: 5 to 50 L/h/kg

SMILES: COc1nc(N(C)C2CCC(F)(F)CC2)c(F)cc1CNC(=O)[C@@H]1CCCN1 [Example 154, (2S)—N-[[6-[N-(4,4-Difluorocyclohexyl)-N-methyl-amino]-5-fluoro-2-methoxy-3-pyridyl]methyl]pyrrolidine-2-carboxamide; 2,2,2-trifluoroacetic Acid]
- EC50 [1]: 20 to 200 nM
- Emax [1]: > 70%
- CLint scaled at 0.5 μM [2]: 5 to 50 L/h/kg

SMILES: COc1nc(N2CCCCCC2)c(F)cc1CNC(=O)[C@@H]1CCCN1 [Example 155, (2S)—N-[[6-(Azepan-1-yl)-5-fluoro-2-methoxy-3-pyridyl]methyl]pyrrolidine-2-carboxamide; 2,2,2-trifluoroacetic Acid]
- EC50 [1]: 20 to 200 nM
- Emax [1]: > 70%
- CLint scaled at 0.5 μM [2]: 5 to 50 L/h/kg

SMILES: COc1nc(N2CCCC(F)(F)C2)c(F)cc1CNC(=O)[C@@H]1CCCN1 [Example 156, (2S)—N-[[6-(3,3-Difluoro-1-piperidyl)-5-fluoro-2-methoxy-3-pyridyl]methyl]-pyrrolidine-2-carboxamide; 2,2,2-trifluoroacetic Acid]
- EC50 [1]: 20 to 200 nM
- Emax [1]: 50 to 70%
- CLint scaled at 0.5 μM [2]: < 5 L/h/kg

SMILES: COc1nc(C2CCCOC2)c(F)cc1CNC(=O)[C@@H]1CCCN1 (stereo partly drawn) [Example 158, (2S)—N-[(5-Fluoro-2-methoxy-6-tetrahydropyran-3-yl-3-pyridyl)methyl]-pyrrolidine-2-carboxamide Hydrochloride]
- EC50 [1]: 20 to 200 nM
- Emax [1]: > 70%
- CLint scaled at 0.5 μM [2]: < 5 L/h/kg

SMILES: COc1nc(C2CCOCC2)c(F)cc1CNC(=O)[C@@H]1CCCN1 [Example 159, (2S)—N-[(5-Fluoro-2-methoxy-6-tetrahydropyran-4-yl-3-pyridyl)methyl]-pyrrolidine-2-carboxamide Hydrochloride]
- EC50 [1]: 200 to 1000 nM
- Emax [1]: > 70%
- CLint scaled at 0.5 μM [2]: < 5 L/h/kg

SMILES: COc1nc(N2CCC(F)CC2)c(F)cc1CNC(=O)[C@@H]1CCCN1 [Example 160, (2S)—N-[[5-Fluoro-6-(4-fluoro-1-piperidyl)-2-methoxy-3-pyridyl]methyl]-pyrrolidine-2-carboxamide; 2,2,2-trifluoroacetic Acid]
- EC50 [1]: 20 to 200 nM
- Emax [1]: 50 to 70%
- CLint scaled at 0.5 μM [2]: < 5 L/h/kg

SMILES: COc1nc(N2CCCC(F)C2)c(F)cc1CNC(=O)[C@@H]1CCCN1 (stereo partly drawn) [Example 161, (2S)—N-[[5-Fluoro-6-(3-fluoro-1-piperidyl)-2-methoxy-3-pyridyl]methyl]-pyrrolidine-2-carboxamide; 2,2,2-trifluoroacetic Acid]
- EC50 [1]: 20 to 200 nM
- Emax [1]: 50 to 70%
- CLint scaled at 0.5 μM [2]: < 5 L/h/kg
